Source: patent US20120020926A1, “COMPOSITION COMPRISING CAFTARIC ACID AND/OR DERIVATIVES THEREOF” (NESTEC S.A., priority 2009, published 2012)
Read-outs that look alike come from different tables or passages of the source.

How the values were obtained:
[1] = system: spray-dried preparation of L. johnsonii; details: Lactobacillus johnsonii, 6 mM, pH 7
Method: 10 mg of a spray-dried preparation of L. johnsonii (3.3 E09 cfu/g) were dissolved in 100 μl of phosphate buffer (50 mM, pH 7.0). To this solution, 100 μl of a caftaric acid solution (12 mM, phosphate buffer 50 mM, pH 7.0) were added. The mixture was then incubated at 37° C. and samples were withdrawn at different reaction times. After centrifugation (3000 g, 5 min) and filtration (0.45 μm pore size syringe filters, Millipore SLHA 025 BS) the samples were analysed by HPLC.
(§1) HPLC-DAD analysis of caftaric acid and hydrolysis products was performed on a Agilent 1100 system equipped with a Atlantis C18 reverse-phase column (4.6×100 mm, particle size 3 μm) and a diode array detector. The column was equilibrated with water containing 0.1% formic acid. After injection, a linear gradient to a final solvent composition of 55% water and 45% acetonitrile (containing 0.1% formic acid) was run within 12 min at a flow rate of 1 ml/min. Caftaric acid and caffeic acid were monitored by UV at 320 nm and were quantified using standard calibration curves.

chlorogenate esterase = details: Aspergillus japonicus, 1.85 mg/mL, pH 7
Method: A solution of chlorogenate esterase (0.8 mg, 24 U/g, from Kikkoman Japan) in 100 μl phosphate buffer (50 mM, pH 7.0) was added to a solution of caftaric acid (0.37 mg) in 100 μl phosphate buffer (50 mM, pH 7.0). The mixture was then incubated at 37° C. for 4 h. […] The supernatant was then analysed by HPLC. A reaction control was run in parallel under the same reaction conditions but without enzyme.
as §1

liver metastasis = details: subcutaneous and oral administrations; cited from earlier work
[2] = system: Nrf2-ARE pathway (AREc32 cells); experiment: Antioxidant Responsive Element (ARE) luciferase assay; format: cell-based, human; details: for F/C (firefly luciferase activity): AREc reporter cell line, 24 h
[3] = system: L. johnsonii (CNCM I-1225) fresh cells; experiment: Hydrolysis of caftaric acid with L. johnsonii (La1) fresh cells; format: in vitro ADME, Lactobacillus johnsonii; details: after 4 h reaction time, 37° C.
Method: Cells of L. johnsonii (CNCM I-1225) were grown (7.0 E08 cfu/ml) and centrifuged (5000 g, 10 min), the pellets were resuspended in phosphate buffer (50 mM, pH 7.0) at a concentration of 0.61 g/ml. To 100 μl of this cells solution, 100 μl of a solution of caftaric acid (12 mM) was added and the mixture was incubated at 37° C. Samples were withdrawn at different reaction times, centrifuged (3000 g, 5 min) and filtered through 0.45 μm pore size syringe filters (Millipore SLHA 025 BS) and analysed by HPLC.
A reaction control was run in parallel under the same reaction conditions but without bacteria.
as §1

[4] = system: L. johnsonii (CNCM I-1225) crude cell extract
Method: (§2) Cells of L. johnsonii (CNCM I-1225) were grown (7.0 E08 cfu/ml) and centrifuged (5000 g, 10 min), the pellets were resuspended in phosphate buffer (50 mM, pH 7.0) at a concentration of 0.61 g/ml. The cells were then lysed using the glass-beads method. 600 μl of cells preparation were put into a Mini-Beadbeater for 1 min of intense shaking, cooled in ice, and put another 1 min in the Mini-Beadbeater. The crude cell extract (100 μl) was then added to 100 μl of a solution of caftaric acid (12 mM, phosphate buffer 50 mM, pH 7.0) and the mixture was incubated at 37° C. Samples were withdrawn at different reaction times, centrifuged (3000 g, 5 min), filtered through 0.45 μm pore size syringe filters (Millipore SLHA 025 BS) and analysed by HPLC.
as §1

[5] = system: L. johnsonii (CNCM I-1225) crude cell extract; experiment: Hydrolysis of caftaric acid with La1 extract (lysed cells); details: after 2 h, 37° C.
Method: as §2, §1

Row | Structure (SMILES) | hydrolysis of caftaric acid into caffeic acid by a spray-dried preparation of La1 (amount by HPLC) ([1]; 0 min) | hydrolysis of caftaric acid into caffeic acid by a spray-dried preparation of La1 (amount by HPLC) ([1]; 15 min) | hydrolysis of caftaric acid into caffeic acid by a spray-dried preparation of La1 (amount by HPLC) ([1]; 30 min) | hydrolysis of caftaric acid into caffeic acid by a spray-dried preparation of La1 (amount by HPLC) ([1]; 60 min) | hydrolysis of caftaric acid into caffeic acid by a spray-dried preparation of La1 (amount by HPLC) ([1]; 120 min) | hydrolysis of caftaric acid into caffeic acid by a spray-dried preparation of La1 (amount by HPLC) ([1]; 240 min) | Hydrolysis of caftaric acid into caffeic acid by chlorogenate esterase (amount by HPLC) (chlorogenate esterase; 0 min) | Hydrolysis of caftaric acid into caffeic acid by chlorogenate esterase (amount by HPLC) (chlorogenate esterase; 15 min) | Hydrolysis of caftaric acid into caffeic acid by chlorogenate esterase (amount by HPLC) (chlorogenate esterase; 30 min) | Hydrolysis of caftaric acid into caffeic acid by chlorogenate esterase (amount by HPLC) (chlorogenate esterase; 60 min) | Hydrolysis of caftaric acid into caffeic acid by chlorogenate esterase (amount by HPLC) (chlorogenate esterase; 120 min) | Hydrolysis of caftaric acid into caffeic acid by chlorogenate esterase (amount by HPLC) (chlorogenate esterase; 240 min) | also measured
1 | O=C(O)/C=C/c1ccc(O)c(O)c1 [Caffeic acid, Caffeic Acid] | 0 | 32 | 53 | 76 | 92 | 98 | 0% | 18% | 26% | 57% | 81% | 98% | liver metastasis (liver metastasis): significantly reduced liver metastasis
2 | O=C(/C=C/c1ccc(O)c(O)c1)O[C@@H](C(=O)O)[C@@H](O)C(=O)O [Caftaric acid] | 99 | 68 | 47 | 24 | 8 | 2 | 99% | 82% | 64% | 43% | 19% | 2% | Nrf2-luciferase reporter activity ([2]; AREc32 cells, saturation inactivation response at higher doses): positive dose-dependent response; F/C (firefly luciferase activity) ([2]; 125 μg/ml): 2796; F/C (firefly luciferase activity) ([2]; 250 μg/ml): 5821; F/C (firefly luciferase activity) ([2]; 500 μg/ml): 5182; F/C (firefly luciferase activity) ([2]; 750 μg/ml): 25792; F/C (firefly luciferase activity) ([2]; 1000 μg/ml): 4777; F/C (firefly luciferase activity) ([2]; 1200 μg/ml): 29043; transformation of caftaric acid into caffeic acid [3]: all caftaric acid was transformed into caffeic acid; reaction rate of hydrolysis as compared to whole cells [4]: increase of the reaction rate; transformation of caftaric acid into caffeic acid [5]: all caftaric acid acid was transformed into caffeic acid
